Structures are written as SMILES.

The record followed here is US20100055218A1, “NOVEL COMPOSITIONS” (priority 2006, published 2010).

The test system of assay [1] is RAW267.7. Briefly: Inhibition of nitric oxide production in LPS-activated macrophages (nitrite, Griess reaction). Type of assay: cell-based, murine. Particulars: Mus musculus, Macrophage; for IC50: read-out: IC50 Nitric Oxide. The protocol:
(§1) The anti-inflammatory effects of rosehip and ligustilide, hydroxytyrosol, magnolol, and genistein were evaluated in activated macrophages by determining the inhibition of the synthesis of nitric oxide and/or proinflammatory prostaglandins (PG). PGE2 plays a critical role in the inflammation process, while nitric oxide (NO) is a hallmark of inflammation in various chronic inflammatory diseases including various forms of arthritis, gastro-intestinal diseases and metabolic syndrome.
(§2) Biologically standardized rosehip powder was obtained from Hyben Vital International, Langeland, Denmark, and dissolved in DMSO. Ligustilide and genistein was synthesized by DSM Nutritional Products. Hydroxytyrosol was from Cayman Chemicals or synthesized by DSM Nutritional Products. Magnolol was obtained from Apin Chemicals Ltd, UK. According to the suppliers' data sheet all products were >90% pure and obtained in powder form. […] The anti-inflammatory effects of compounds was tested in cellular assays using a murine macrophage indicator cell line, RAW267.7, which was purchased from American Type Culture Collection, (ATCC) and cultured in DMEM according to the protocol provided by ATCC. Cells (˜50'000/well) were seeded into flat-bottomed microtiter plates and cultured for one day. Cells were then starved in complete medium containing 0.25% fetal calf serum (FCS) (D-025). After overnight culture, medium was removed and replaced by 100 μL of D-025 containing the test compounds at twice the final concentration. Subsequently, 100 μL of D-025 containing 2 μg/ml lipopolysaccharide (LPS) was added (i.e. final LPS concentration of 1 μg/ml) and the cells were cultured for 24 hours. Substances were usually tested in a concentration range from 0.2 to 50 μM in two-fold dilution steps. In the case of rosehip extract, the concentration range was from 3-2000 μg/ml. Concentrations of nitrite which was generated from nitric oxide released by cells were determined by the Griess reaction (see e.g Imai et al. Biochem Biophys Res Comm, 197, 105 [1993]) using sodium nitrite as standard. Briefly, 50 μl of supernatant was mixed with Griess reagent 1 (25 μL) and Griess reagent 2 (25 μL), centrifuged and the optical density at 540 nm determined. PGE2 secreted into the cell culture medium was determined by EIA obtained from Cayman Chemicals (Ann Harbor, Wis., USA) and used according to the manufacturer's instructions. IC50 values were calculated using a […] least-square fitting equation [y=A+((B−A)/(1+((C−x)̂D))] for best-fit curves (Excel fit software program).
On the technique in general: Griess reagent forms a coloured azo dye with nitrite.

In assay [2] the test system is RAW267.7. Briefly: Inhibition of PGE2 production in LPS-activated macrophages (EIA). The following applies: Mus musculus, Macrophage; for IC50: read-out: IC50 PGE2. In kind it is cell-based, murine. The protocol:
as §1, §2

Setting [3] is: 6.25 μmol/L, read-out: % inhibition of NO production.
[4] abbreviates: single substance, LPS 1 μg/ml, 24 hours.

Regarding `OCCc1ccc(O)c(O)c1` [OH-Tyrosol, 3,4 dihydroxyphenylethanol], the inhibition at 6.25 µM in the assay on RAW267.7 [1] (setting [3]) is -5%. In addition, in the assay on RAW267.7 [1] (12.5 μmol/L, read-out: % inhibition of NO production), the inhibition at 12.5 µM is 9%. The IC50 in the assay on RAW267.7 [1] (setting [4]) came to 28 ± 2 µM; in the assay on RAW267.7 [2] (setting [4]), 24 ± 3 µM.
`CCC/C=C1\OC(=O)C2=C1CCC=C2` [Ligustilide, ligustilide]: the inhibition at 6.25 µM in the assay on RAW267.7 [1] (setting [3]) came to 5%. Besides, the IC50 in the assay with RAW267.7 [1] (setting [4]) worked out at 15 ± 1 µM; with RAW267.7 [2] (setting [4]) it was 10 ± 2 µM.
With `O=c1c(-c2ccc(O)cc2)coc2cc(O)cc(O)c12` [Genistein, 4′,5,7-trihydroxyisoflavone], the inhibition at 25 µM in the assay on RAW267.7 [1] (25 μmol/L, read-out: % inhibition of NO production) is 24%. The IC50 with RAW267.7 [1] (setting [4]) worked out at 37 ± 2 µM; in the assay with RAW267.7 [2] (setting [4]), 5 ± 1 µM.
Turning to `C=CCc1ccc(O)c(-c2cc(CC=C)ccc2O)c1` [Magnolol, 5,5′-Diallyl-2,2′-biphenyldiol], the half-inhibitory concentration (IC50) is 10 ± 2 µM in the assay on RAW267.7 [1] (24 h) and 2 ± 1 µM with RAW267.7 [2] (24 h). Moreover, the inhibition at 6.25 µM in the assay on RAW267.7 [1] (read-out: % inhibition of NO production) stood at 2%; in the assay on RAW267.7 [2] (read-out: % inhibition of PGE2 production) it was 57%.

In general, inhibition refers to the relative decrease from the control value, in per cent. A word on the IC50: it is the concentration that inhibits the measured activity by half.
